How the values were obtained:
[1] = test system: hPMBC; assay: Chymotrypsin-like ProteasomeGlo assay in hPBMC; assay type: cell-based; details: Homo sapiens; read-out: Pglo hPBMC
In short: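 IC50 derived from luminescent chymotrypsin-like proteasome activity (Suc-LLVY-Glo substrate plus luciferin detection reagent). Measured after 105 min compound exposure at 37 °C, 5% CO2. Cells were human B cells purified from buffy-coat PBMC.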

[2] = target: T1, β5 subunit of the human constitutive proteasome (CPS) (Homo sapiens, UniProt P28074); assay: β5 inhibition assay, human constitutive proteasome (Suc-LLVY-AMC); assay type: biochemical; details: IC50 class, Suc-LLVY-AMC substrate
T1 construct: purchased Boston Biochem E-360
Procedure: The enzymatic activity of the β5 subunit of the human constitutive proteasome (CPS) is analyzed. In another assay, which differs from the assay of the human constitutive proteasome only in using the human immunoproteasome (IPS) the enzymatic activity of the β5 subunit of the human immunoproteasome (IPS) is analyzed. […] Inhibition is indicated as IC50 [nM] (“-”=not measured).

[3] = test system: HT-29 cells; assay: CellTiter-Glo luminescent cell viability assay with HT-29 cells (72h incubation); assay type: cell-based, human; details: Homo sapiens, HT-29, HT29 cells, read-out: CTG HT29
In short: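 Viability read as CellTiter-Glo luminescence after 72 h compound exposure, with 10 μM staurosporine and DMSO as control wells. Seeding 400 cells per well, compound added 24 h post-plating; IC50 from curve fitting.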

Compound | IC50 [1] [µM] | IC50 [2] [µM] | IC50 [3] [µM]
Cc1ccc2cc1CNC(=O)C(CCc1cnc3cccnc3c1)NC(=O)[C@@H](NC(=O)OCc1ccccc1)CC(=O)N1CCCC(CCO2)C1 (stereo partly drawn) [Compound 511, benzyl ((12S)-9-(2-(1,5-naphthyridin-3-yl)ethyl)-5^4-methyl-8,11,14-trioxo-4-oxa-7,10-diaza-1(3,1)-piperidina-5(1,3)-benzenacyclotetradecaphane-12-yl)carbamate] | < 0.1 | < 0.1 | < 0.1
CCOC(=O)N[C@H]1CC(=O)N2CCCC(CCOc3ccc(C)c(c3)CNC(=O)C(c3cnn(C)c3)NC1=O)C2 (stereo partly drawn) [Compound 363, Ethyl ((12S)-5^4-methyl-9-(1-methyl-1H-pyrazol-4-yl)-8,11,14-trioxo-4-oxa-7,10-diaza-1(3,1)-piperidina-5(1,3)-benzenacyclotetradecaphane-12-yl)carbamate] | < 0.1 | < 0.1 | < 0.1
CC(=O)N[C@H]1CC(=O)N2CCCC(CCOc3ccc(C)c(c3)CNC(=O)C(CCc3ccncc3)NC1=O)C2 (stereo partly drawn) [Compound 551, N-((12S)-5^4-methyl-8,11,14-trioxo-9-(2-(pyridin-4-yl)ethyl)-4-oxa-7,10-diaza-1(3,1)-piperidina-5(1,3)-benzenacyclotetradecaphane-12-yl)acetamide] | < 0.1 | < 0.1 | < 0.1
Cc1ccc2cc1CNC(=O)[C@H](CCc1ccccc1)NC(=O)[C@@H](NC(=O)Cc1ccccc1F)CC(=O)N1CCCC(CCO2)C1 (stereo partly drawn) [Compound 333, 2-(2-fluorophenyl)-N-((9S,12S)-5^4-methyl-8,11,14-trioxo-9-phenethyl-4-oxa-7,10-diaza-1(3,1)-piperidina-5(1,3)-benzenacyclotetradecaphane-12-yl)acetamide] | < 0.1 | < 0.1 | < 0.1
Cc1ccc2cc1CNC(=O)C(c1cnn(C)c1)NC(=O)CCCCC(=O)N1CCCC(CCO2)C1 (stereo not drawn) [Compound 356, 5^4-methyl-9-(1-methyl-1H-pyrazol-4-yl)-4-oxa-7,10-diaza-1(3,1)-piperidina-5(1,3)-benzenacyclohexadecaphane-8,11,16-trione] | < 0.1 | 0.5 to 1 | 0.5 to 1
CC(=O)N[C@H]1CC(=O)N(C)CCCCOc2ccc(C)c(c2)CNC(=O)[C@H](CCc2ccccc2)NC1=O [Compound 296, N-(1^4,7-dimethyl-8,11,14-trioxo-13-phenethyl-2-oxa-7,12,15-triaza-1(1,3)-benzenacyclohexadecaphane-10-yl)acetamide] | 0.1 to 0.5 | 0.5 to 1 | 0.1 to 0.5

Continued, values first:

IC50 [1] [µM] | IC50 [2] [µM] | IC50 [3] [µM] | Compound
< 0.1 | < 0.1 | < 0.1 | Cc1n[nH]c(CC(=O)N[C@H]2CC(=O)N3CCCC(CCOc4ccc(C)c(c4)CNC(=O)[C@H](CCc4ccccc4)NC2=O)C3)n1 (stereo partly drawn) [Compound 332, 2-(3-methyl-1H-1,2,4-triazol-5-yl)-N-((9S,12S)-5^4-methyl-8,11,14-trioxo-9-phenethyl-4-oxa-7,10-diaza-1(3,1)-piperidina-5(1,3)-benzenacyclotetradecaphane-12-yl)acetamide]
< 0.1 | < 0.1 | < 0.1 | Cc1ccc2cc1CNC(=O)[C@H](CCc1ccccc1)NC(=O)[C@@H](NC(=O)OCc1ccccc1)CCCCC(=O)N1CC(CCO2)C1 [Compound 353, benzyl ((9S,12S)-5^4-methyl-8,11,17-trioxo-9-phenethyl-4-oxa-7,10-diaza-1(3,1)-azetidina-5(1,3)-benzenacycloheptadecaphane-12-yl)carbamate]
< 0.1 | < 0.1 | < 0.1 | Cc1ccc2cc1CNC(=O)C(CCc1cnccn1)NC(=O)[C@@H](NC(=O)C1(c3ccc(N)cc3)CC1)CC(=O)N1CCCC(CCO2)C1 (stereo partly drawn) [Compound 371, 1-(4-aminophenyl)-N-((9S,12S)-5^4-methyl-8,11,14-trioxo-9-(2-(pyrazin-2-yl)ethyl)-4-oxa-7,10-diaza-1(3,1)-piperidina-5(1,3)-benzenacyclotetradecaphane-12-yl)cyclopropane-1-carboxamide]

Reference: patent publication US20240415819A1, “MACROCYCLIC COMPOUNDS AS PROTEASOME SUBUNIT BETA TYPE-5 INHIBITORS” (Lead Discovery Center GmbH, priority 2021, published 2024)
